Columns and labels:
[1] = test system: stented coronary arteries; experiment: One-month pig studies, qualitative histopathologic analysis; assay type: in vivo, Juvenile domestic swine
Method: (§1) No other antiplatelet agents or anticoagulants were given.
(§2) Angiograms were recorded immediately before stent implantation, immediately after stent implantation and at 1 month follow-up. Immediately after the follow-up angiography, the hearts were excised and the coronary vasculature was perfusion fixed at physiologic pressure. The vessels were then processed to obtain histologic cross sections for morphometric analysis from proximal, middle and distal locations within each stent.
(§3) Computer assisted quantitative coronary angiography (QCA) analysis and histomorphometric analysis were performed on each stented artery. Qualitative histopathologic analysis was also performed, with each artery evaluated for both injury and inflammation.

[2] = test system: pigs with stented coronary arteries; conditions: in vivo
From the text: (§4) Juvenile domestic swine received one stent in the left anterior descending coronary artery (LAD) and/or one stent in the left circumflex (LCX) or right coronary arteries (RCA). To account for differences in vessel diameter prior to stenting, the deployment pressure for each stent was adjusted to achieve a balloon-to-artery ratio (BAR) of approximately 1.1-1.2. The pigs were followed for 1 month after stent implantation.
(§5) The pigs were fed a standard high fiber diet without lipid or cholesterol supplementation. For antiplatelet effect, each pig was administered approximately 325 mg aspirin and 250 mg ticlopidine daily, starting at least 2 days prior to surgery and continuing until the end of the study. Each pig was also administered approximately 10,000 units heparin during stent implantation and approximately 10,000 units heparin during follow-up angiography. No other antiplatelet agents or anticoagulants were given.

in-stent restenosis = experiment: Fast-release low-dose and high-dose paclitaxel-coated stents versus control; assay type: in vivo, porcine
[3] = test system: pigs with stented coronary arteries; experiment: One-month pig studies, premature deaths and safety
From the text: as §4, §5

[4] = test system: porcine coronary in-stent restenosis model; experiment: Slow-release paclitaxel coated GR II stents versus control; assay type: in vivo; conditions: 175-200 μg total drug
From the text: Furthermore, the coating itself appears biocompatible.

[5] = test system: stented coronary arteries (in-stent restenosis); experiment: One-month pig studies, histomorphometric analysis; assay type: in vivo, Juvenile domestic swine; conditions: 1-month F/U
Method: as §1, §2, §3

[6] = test system: stented coronary arteries (in-stent restenosis); experiment: One-month pig studies, quantitative coronary angiography (QCA); assay type: in vivo, Juvenile domestic swine; conditions: 1 month
Method: as §1, §2, §3

[7] = In-vitro flow system (10 ml/min, 1% BSA in PBS): antibody remaining on stent; assay type: physicochemical; conditions: after approximately 10 days perfusion
From the text: In still another aspect of the present invention as depicted in FIG. 11, coating layer 16 can be considered an adsorbent layer and/or an absorbent layer in which a bioactive material is attached thereto. In one particular example, device 10 is a stainless steel GR II™ stent in which the stainless steel base material 14 of structure 12 is coated with a polymer and, in particular, parylene. This adsorbent polymer layer 16 of parylene is approximately 230,000 Å thick. Bioactive material layer 18 of the antiplatelet GP IIb/IIIa antibody (AZ1) was passively loaded on adsorbent polymer layer 16. The polymer coated stainless steel stents were immersed for approximately 24 hours in a buffered aqueous solution of AZ1 antibody (1 mg/ml, pH=7.2) at 37° C. AZ1 is a monoclonal anti-rabbit platelet glycoprotein (GP) IIb/IIIa antibody.
In another example, c7E3 Fab as bioactive material layer 18 is attached to polymer coating layer 16. Bioactive material c7E3 Fab is a chimeric monoclonal antibody that acts upon the […] integrin on platelets to inhibit their aggregation. This antibody or receptor blocker can be used in humans intravenously to prevent thrombosis during coronary angioplasty. This receptor blocker is also known as ReoPro™ available from Eli Lilly, Indianapolis, Ind. […]

[8] = 400 μg paclitaxel+parylene N stents

Compound: CC(=O)O[C@H]1C(=O)[C@@]2(C)[C@H]([C@H](OC(=O)c3ccccc3)[C@]3(O)C[C@H](OC(=O)[C@H](O)[C@@H](NC(=O)c4ccccc4)c4ccccc4)C(C)=C1C3(C)C)[C@]1(OC(C)=O)CO[C@@H]1C[C@@H]2O [Paclitaxel, paclitaxel]
- histologic sections with occasional small patches of luminal fibrin ([1]; 5 μg paclitaxel stents): none
- histologic sections with vessel wall hypocellularity and hyalinization ([1]; 5 μg paclitaxel stents): approximately 28%
- histologic sections with occasional small patches of luminal fibrin ([1]; 15 μg paclitaxel stents): none
- histologic sections with vessel wall hypocellularity and hyalinization ([1]; 15 μg paclitaxel stents): approximately 67%
- histologic sections with occasional small patches of luminal fibrin ([1]; 35 μg paclitaxel stents): approximately 50%
- histologic sections with vessel wall hypocellularity and hyalinization ([1]; 35 μg paclitaxel stents): over 80%
- histologic sections with occasional small patches of luminal fibrin ([1]; 85 μg paclitaxel stents): approximately 50%
- histologic sections with vessel wall hypocellularity and hyalinization ([1]; 85 μg paclitaxel stents): over 80%
- histologic sections with occasional small patches of luminal fibrin [1, 8]: approximately 50%
- histologic sections with vessel wall hypocellularity and hyalinization [1, 8]: over 80%
- safety problems related to the stents [2]: no safety problems
- Area Stenosis (in-stent restenosis; Low-Dose): 19.3 ± 9.45 %
- in-stent restenosis compared to control stents (in-stent restenosis; high-dose): significantly reduced
- in-stent restenosis compared to control stents (in-stent restenosis; low-dose): significantly reduced
- Premature Deaths ([3]; 5 μg paclitaxel on stent): One pig (stents in LAD &
- Premature Deaths ([3]; 5 μg paclitaxel on stent, listed as paclitaxel): One pig
- Premature Deaths ([3]; 15 μg paclitaxel on stent): One pig (stents in LAD &
- Premature Deaths ([3]; 15 μg paclitaxel on stent, listed as paclitaxel): One pig
- Premature Deaths ([3]; 35 μg paclitaxel on stent): None
- Premature Deaths ([3]; 85 μg paclitaxel on stent): None
- Premature Deaths ([3]; 400 μg paclitaxel + parylene N): None
- in-stent restenosis compared with controls [4]: significantly reduced
- Lumen Diameter ([5]; 5 μg paclitaxel on stent): 1.77 ± 0.34 mm
- Neointimal Thickness ([5]; 5 μg paclitaxel on stent): 0.31 ± 0.20 mm
- Outer Diameter ([5]; 5 μg paclitaxel on stent): 2.73 ± 0.28 mm
- Wall Thickness ([5]; 5 μg paclitaxel on stent): 0.48 ± 0.23 mm
- Lumen Diameter ([5]; 15 μg paclitaxel on stent): 1.87 ± 0.37 mm
- Neointimal Thickness ([5]; 15 μg paclitaxel on stent): 0.29 ± 0.19 mm
- Outer Diameter ([5]; 15 μg paclitaxel on stent): 2.41 ± 0.90 mm
- Wall Thickness ([5]; 15 μg paclitaxel on stent): 0.46 ± 0.22 mm
- Lumen Diameter ([5]; 35 μg paclitaxel on stent): 2.12 ± 0.52 mm
- Neointimal Thickness ([5]; 35 μg paclitaxel on stent): 0.19 ± 0.16 mm
- Outer Diameter ([5]; 35 μg paclitaxel on stent): 2.78 ± 0.32 mm
- Wall Thickness ([5]; 35 μg paclitaxel on stent): 0.33 ± 0.17 mm
- Lumen Diameter ([5]; 85 μg paclitaxel on stent): 2.40 ± 0.31 mm
- Neointimal Thickness ([5]; 85 μg paclitaxel on stent): 0.15 ± 0.08 mm
- Outer Diameter ([5]; 85 μg paclitaxel on stent): 2.96 ± 0.31 mm
- Wall Thickness ([5]; 85 μg paclitaxel on stent): 0.28 ± 0.10 mm
- Lumen Diameter ([5]; 400 μg paclitaxel + parylene N): 2.58 ± 0.19 mm
- Neointimal Thickness ([5]; 400 μg paclitaxel + parylene N): 0.12 ± 0.06 mm
- Outer Diameter ([5]; 400 μg paclitaxel + parylene N): 3.06 ± 0.17 mm
- Wall Thickness ([5]; 400 μg paclitaxel + parylene N): 0.24 ± 0.07 mm
- Late Loss ([6]; 5 μg paclitaxel on stent): 17.9 ± 20.3%
- MLD at F/U ([6]; 5 μg paclitaxel on stent): 1.74 ± 0.45 mm
- Mean Diameter at Follow-up ([6]; 5 μg paclitaxel on stent): 2.23 ± 0.51 mm
- Late Loss ([6]; 15 μg paclitaxel on stent): 20.1 ± 19.9%
- MLD at F/U ([6]; 15 μg paclitaxel on stent): 1.90 ± 0.38 mm
- Mean Diameter at Follow-up ([6]; 15 μg paclitaxel on stent): 2.15 ± 0.43 mm
- Late Loss ([6]; 35 μg paclitaxel on stent): 2.6 ± 7.5%
- MLD at F/U ([6]; 35 μg paclitaxel on stent): 2.42 ± 0.25 mm
- Mean Diameter at Follow-up ([6]; 35 μg paclitaxel on stent): 2.62 ± 0.21 mm
- Late Loss ([6]; 85 μg paclitaxel on stent): 1.6 ± 8.1%
- MLD at F/U ([6]; 85 μg paclitaxel on stent): 2.61 ± 0.15 mm
- Mean Diameter at Follow-up ([6]; 85 μg paclitaxel on stent): 2.77 ± 0.22 mm
- Late Loss ([6]; 400 μg paclitaxel + parylene N): 0.32 ± 7.1%
- MLD at F/U ([6]; 400 μg paclitaxel + parylene N): 2.75 ± 0.17 mm
- Mean Diameter at Follow-up ([6]; 400 μg paclitaxel + parylene N): 2.92 ± 0.22 mm

Compound: c7E3 Fab: chimeric monoclonal antibody acting on platelet GP IIb/IIIa integrin to inhibit aggregation
- loaded antibody remaining on the stent [7]: approximately half

From patent US6730064B2, “Coated implantable medical device” (Cook Incorporated, priority 1998, dated 2004)
